Patent US10022372B2, “Caveolin-1 related methods for treating glioblastoma with temozolomide” (THOMAS JEFFERSON UNIVERSITY, priority 2013, dated 2018)

Key:
[1] = cited from earlier work
[2] = system: Cav-1 overexpressing U-87MG cells (LV105 Cav-1); test: Annexin V / propidium iodide flow cytometry of TMZ-treated U-87MG cells; type: cell-based, human
Protocol: FIG. 5. […] Each group is normalized to its own DMSO control (*p<0.05 and **p<0.01 vs internal DMSO control, \p<0.01 vs TMZ treated LV105 control, n=3 per group).
U-87MG cells (50,000/well) were plated in 12-well tissue culture dishes and allowed to attach overnight prior to changing their medium into complete EMEM containing either 500 μM TMZ or DMSO control and culturing them for an additional 72 hours. Cells were then trypsinized, centrifuged at 300×g for 5 min and resuspended in binding buffer with APC-conjugated anti-Annexin V antibody (BP Biosciences) and 0.33 μg/ml Propidium Iodide (PI, KPL, Gaithersburg, Md.). All samples were run on a BD FACSCalibur flow cytometer (BD Biosciences). Cells were quantified according to staining as follows: viable (Annexin V negative, PI negative), early apoptotic (Annexin V positive, PI negative), late apoptotic (Annexin V positive, PI positive), and dead (Annexin V negative, PI positive).

[3] = system: three different GBM-derived cell lines; settings: in vitro administration, Boyden-chamber assay; cited from earlier work

Molecule	stability at acidic pH ([1]; pH <5)	stability at pH>7 ([1]; pH >7)	increase in early apoptotic cells compared to TMZ-treated LV105 control cells ([2]; Cav-1 overexpressing U-87MG cells, 500 μM, 72 hours, p<0.01)	cytotoxicity at 500 µM ([2]; Homo sapiens, U-87 MG, 72 h, read-out: reduction in cell viability compared to TMZ treated LV105 control cells)	invasion [3]
Cn1nnc2c(C(N)=O)ncn2c1=O [temozolomide, 3,4-dihydro-3-methyl-4-oxoimidazo[5,1-d]-αs-tetrazine-8-carboxamide]	stable	labile	> 400%	5.5%	–
full length Cav-1: full length Caveolin-1 protein administered in vitro (protein, UniProt Q03135 1-178, looked up, full-length, full length Caveolin-1 protein administered in vitro) MSGGKYVDSEGHLYTVPIREQGNIYKPNNKAMADELSEKQVYDAHTKEIDLVNRDPKHLNDDVVKIDFEDVIAEPEGTHSFDGIWKASFTTFTVTKYWFYRLLSALFGIPMALIWGIYFAILSFLHIWAVVPCIKSFLIEIQCISRVYSIYVHTVCDPLFEAVGKIFSNVRINLQKEI	–	–	–	–	prevented invasion
